Measured values: patent publication US20220397573A1, “Biomolecular Detection Device” (Hoffmann-La Roche Inc., priority 2019, published 2022)

Test system: off-target adenosine receptors
Experiment: Cross-sensitivity test: stimulation of off-target receptors in HEK293 cells on the biomolecular detection device
Assay type: cell-based
Conditions: 5 μM NECA, FIG. 6a
Procedure: SNAP-β2AR cells were grown to 60-80% confluency in T25 culture flasks, washed twice with warm phosphate-buffered saline (PBS), incubated with 1× Versene for 5 min and resuspended in cell culture medium. In order to decrease baseline signal contributions from non-functional cellular debris, the cells were centrifuged at 50 rpm for 1 min and resuspended in culture media two times sequentially. The cells were seeded to reach confluency on the waveguide in an incubation chamber containing 500 μl cell culture media. Cells were only seeded when viability exceeded 90%, as determined by a Countess automated cell counter (Invitrogen). Except for the real-time establishment of the transmembrane nanopattern, seeded cells were kept in a CO2 incubator at 37° C. for 2 h to allow cells adherence to the sensor chip (and covalent interaction of the SNAP-tag on the β2AR with the SNAP-tag substrate on the chip). The incubation chamber containing the cells was then washed twice with warm HBSS buffer (supplemented with 20 mM HEPES, pH 7.4) adjusted for DMSO and transferred to a modified F3000 ZeptoReader (Zeptosens) which was kept at 35° C. […] For all assays, the signal was monitored for 7 min (baseline measurement) before careful substitution of the buffer with buffer containing the β2AR ligand and monitored for another 21 min thereafter. […]

## CCNC(=O)[C@H]1O[C@@H](n2cnc3c(N)ncnc32)[C@H](O)[C@@H]1O [NECA]
  signal (mass increase at the receptor relative to the initial mass) upon off-target stimulation: no significant signal change
